We go through 4 compounds from paper PMC8129133, “Polymer-free corticosteroid dimer implants for controlled and sustained drug delivery” (Nature Communications, 2021).

Molecules are shown by their SMILES. Where “and” joins values, the source holds several entries; their conditions need not be identical. Equal entries are not always repeated.

This data set can be described thus: In vitro release. The format is physicochemical. The note with it: for Cumulative Pred Release: Fig 5a pellet 1x1 mm; for Cumulative Pred Release (%): Fig 5a pellet. How it is done: Pellets for release studies. Crystalline drug dimers were weighed on a stainless steel coupon. In the case of blends with a second drug, the dimer and drug were mixed at the desired mass ratio with mortar and pestle prior to weighing. Samples were transferred to a heat press (Carver Laboratory Press). A PTFE mold containing an array of 1 mm diameter holes of 1 mm depth was placed on top of the melt, and pressure was applied for 2 min. Molded pellets were cooled to room temperature and punched out of the mold, yielding a pellet of 1 mm height × 1 mm diameter.
Release studies were carried out using different media, including PBS (pH 7.4, Gibco), 100% FBS (Sigma, F1051), 1% FBS in PBS pH 7.4, and 3.6% BSA (Sigma, A7906) in PBS (pH 7.4, Gibco). […] Samples were incubated in release medium at 37 °C under constant agitation on an orbital shaker at 115 rpm (VWR). At designated timepoints, sampling was performed by complete removal of medium and replenishment with fresh buffer. Sampling timepoints included 24 h and then every 3–4 days thereafter. For PBS release conditions, samples were analyzed directly. For samples with protein (100% FBS, 1% FBS, 3.6% BSA), protein was precipitated by addition of acetonitrile. Samples were vortexed and centrifuged to separate extracted drug from precipitated protein. The supernatant was then analyzed for drug concentration by HPLC.

[1] abbreviates: Fig 6a heterodimer pellet, 4 ml PBS, Day 1, samples and avg.
Setting [2] is: Fig 6a heterodimer pellet, 4 ml PBS, Day 1, samples and avg, mean.
[3] abbreviates: Fig 6a heterodimer pellet, 4 ml PBS, Day 5, samples and avg.
Where [4] appears, read: Fig 6a heterodimer pellet, 4 ml PBS, Day 5, samples and avg, mean.
The mark [5] stands for this setting: Fig 6a heterodimer pellet, 4 ml PBS, Day 7, samples and avg.
[6] abbreviates: Fig 6a heterodimer pellet, 4 ml PBS, Day 7, samples and avg, mean.
Setting [7] is: Fig 6a heterodimer pellet, 4 ml PBS, Day 11, samples and avg.
Where [8] appears, read: Fig 6a heterodimer pellet, 4 ml PBS, Day 11, samples and avg, mean.
The mark [9] stands for this setting: Fig 6a heterodimer pellet, 4 ml PBS, Day 14, samples and avg.
Where [10] appears, read: Fig 6a heterodimer pellet, 4 ml PBS, Day 14, samples and avg, mean.
[11] abbreviates: Fig 6a heterodimer pellet, PBS, Day 1, avg.
The mark [12] stands for this setting: Fig 6a heterodimer pellet, PBS, Day 5, avg.
Where [13] appears, read: Fig 6a heterodimer pellet, PBS, Day 7, avg.
The mark [14] stands for this setting: Fig 6a heterodimer pellet, PBS, Day 11, avg.
Setting [15] is: Fig 6a heterodimer pellet, PBS, Day 14, avg.

Consider `CC1CC2C3CCC4=CC(=O)C=CC4(C)C3(F)C(O)CC2(C)C1(O)C(=O)COC(=O)OCCCCCCOC(=O)OCC(=O)C1(O)C(C)CC2C3CCC4=CC(=O)C=CC4(C)C3(F)C(O)CC21C` (stereo not drawn) [Dex-Hex-Dex], for which the “Cumulative Dex Release” value (Fig 5g pellet 1x1 mm, 2 ml FBS, Day 3, samples and avg) is 5606.66 ng and 6179.38 ng and 5887.12 ng; the “Cumulative Dex Release” value (Fig 5g pellet 1x1 mm, 2 ml FBS, Day 3, samples and avg, mean) is listed as 5891.06 ng; the “Cumulative Dex Release” value (Fig 5g pellet 1x1 mm, 2 ml FBS, Day 7, samples and avg (Dex-Hex-Dex)) was 14987.41 ng and 15994.59 ng and 15970.98 ng; the “Cumulative Dex Release” value (Fig 5g pellet 1x1 mm, 2 ml FBS, Day 7, samples and avg (Dex-Hex-Dex), mean) stood at 15650.99 ng; the “Cumulative Dex Release” value (Fig 5g pellet 1x1 mm, 2 ml FBS, Day 10, samples and avg) was 21287.07 ng and 22357.19 ng and 22516.81 ng; the “Cumulative Dex Release” value (Fig 5g pellet 1x1 mm, 2 ml FBS, Day 10, samples and avg, mean) came to 22053.69 ng. Further, the “Cumulative Dex Release” value is 32738.37 ng and 34997.20 ng and 34417.18 ng (Fig 5g pellet 1x1 mm, 2 ml FBS, Day 14, samples and avg (Dex-Hex-Dex)); 34050.91 ng (Fig 5g pellet 1x1 mm, 2 ml FBS, Day 14, samples and avg (Dex-Hex-Dex), mean). Besides, the “Cumulative Dex Release (%)” value stood at 0.42% (Fig 5g pellet, FBS, Day 3, avg); 1.13% (Fig 5g pellet, FBS, Day 7, avg (Dex-Hex-Dex)); 1.59% (Fig 5g pellet, FBS, Day 10, avg); 2.45% (Fig 5g pellet, FBS, Day 14, avg (Dex-Hex-Dex)).

As for `CC1CC2C3CCC4=CC(=O)C=CC4(C)C3(F)C(O)CC2(C)C1(O)C(=O)COC(=O)OCCOCCOCCOC(=O)OCC(=O)C1(O)CCC2C3CCC4=CC(=O)CCC4(C)C3C(O)CC21C` (stereo not drawn) [Dex-TEG-HC], the “Cumulative Dex Release” value reads like this: under setting [1], 81.55 ng and 74.59 ng and 99.31 ng; under setting [2], 85.15 ng; under setting [3], 2326.27 ng and 2325.49 ng and 1831.14 ng; under setting [4], 2160.97 ng; under setting [5], 3098.36 ng and 2980.56 ng and 2543.37 ng; under setting [6], 2874.10 ng. Moreover, the “Cumulative Dex Release” value was 4911.68 ng and 4696.17 ng and 4037.68 ng under setting [7]; 4548.51 ng under setting [8]; 6135.25 ng and 5788.05 ng and 5026.44 ng under setting [9]; 5649.91 ng under setting [10]. Further, the “Cumulative HC Release” value is, setting by setting: under setting [1], 224.52 ng and 206.99 ng and 167.90 ng; under setting [2], 199.80 ng; under setting [3], 2952.91 ng and 3019.31 ng and 2390.05 ng; under setting [4], 2787.43 ng; under setting [5], 4047.00 ng and 4113.39 ng and 3426.84 ng; under setting [6], 3862.41 ng. The “Cumulative HC Release” value is, setting by setting: under setting [7], 6283.65 ng and 6328.14 ng and 5362.18 ng; under setting [8], 5991.32 ng; under setting [9], 7866.10 ng and 7754.88 ng and 6681.74 ng; under setting [10], 7434.24 ng. Besides, the “Cumulative Dex Release (%)” value under setting [11] was found to be 0.0441%; the “Cumulative Dex Release (%)” value under setting [12] is listed as 1.12%; the “Cumulative Dex Release (%)” value under setting [13] was determined as 1.49%; the “Cumulative Dex Release (%)” value under setting [14] is reported as 2.35%; the “Cumulative Dex Release (%)” value under setting [15] was 2.92%. Further, the “Cumulative HC Release (%)” value under setting [11] is given as 0.11%; the “Cumulative HC Release (%)” value under setting [12] came out at 1.51%; the “Cumulative HC Release (%)” value under setting [13] amounted to 2.09%; the “Cumulative HC Release (%)” value under setting [14] amounted to 3.25%; the “Cumulative HC Release (%)” value under setting [15] came to 4.03%.

Take `CC12CCC(=O)C=C1CCC1C2C(O)CC2(C)C1CCC2(O)C(=O)COC(=O)OCCOCCOCCOC(=O)OCC(=O)C1(O)CCC2C3CCC4=CC(=O)CCC4(C)C3C(O)CC21C` (stereo not drawn) [HC-TEG-HC]: the “Cumulative HC Release” value runs as follows: (Fig 5c pellet 1x1 mm, 4 ml PBS, Day 1, samples and avg) 3582.46 ng and 3140.26 ng and 2450.67 ng; (Fig 5c pellet 1x1 mm, 4 ml PBS, Day 1, samples and avg, mean) 3057.80 ng; (Fig 5c pellet 1x1 mm, 4 ml PBS, Day 3, samples and avg) 8019.98 ng and 7816.75 ng and 5925.61 ng; (Fig 5c pellet 1x1 mm, 4 ml PBS, Day 3, samples and avg, mean) 7254.11 ng; (Fig 5c pellet 1x1 mm, 4 ml PBS, Day 7, samples and avg) 21489.19 ng and 20555.93 ng and 15454.82 ng; (Fig 5c pellet 1x1 mm, 4 ml PBS, Day 7, samples and avg, mean) 19166.65 ng. In addition, the “Cumulative HC Release” value is, setting by setting: (Fig 5c pellet 1x1 mm, 4 ml PBS, Day 11, samples and avg) 36020.08 ng and 33028.17 ng and 24138.38 ng; (Fig 5c pellet 1x1 mm, 4 ml PBS, Day 11, samples and avg, mean) 31062.21 ng; (Fig 5c pellet 1x1 mm, 4 ml PBS, Day 14, samples and avg) 45741.74 ng and 40347.40 ng and 29842.17 ng; (Fig 5c pellet 1x1 mm, 4 ml PBS, Day 14, samples and avg, mean) 38643.77 ng. Besides, the “Cumulative HC Release (%)” value (Fig 5c pellet, PBS, Day 1, avg) stood at 0.51%; the “Cumulative HC Release (%)” value (Fig 5c pellet, PBS, Day 3, avg) is reported as 1.20%; the “Cumulative HC Release (%)” value (Fig 5c pellet, PBS, Day 7, avg) is 3.17%; the “Cumulative HC Release (%)” value (Fig 5c pellet, PBS, Day 11, avg) turned out to be 5.15%; the “Cumulative HC Release (%)” value (Fig 5c pellet, PBS, Day 14, avg) was 6.40%.

As to `CC12C=CC(=O)C=C1CCC1C2C(O)CC2(C)C1CCC2(O)C(=O)COC(=O)OCCOCCOCCOC(=O)OCC(=O)C1(O)CCC2C3CCC4=CC(=O)C=CC4(C)C3C(O)CC21C` (stereo not drawn) [Pred-TEG-Pred], the “Cumulative Pred Release” value was 4849.98 ng and 3117.45 ng and 2848.01 ng (4 ml PBS, Day 1, samples and avg); 3605.15 ng (4 ml PBS, Day 1, samples and avg, mean); 9969.33 ng and 8304.40 ng and 8589.91 ng (4 ml PBS, Day 3, samples and avg); 8954.55 ng (4 ml PBS, Day 3, samples and avg, mean); 27879.94 ng and 24662.51 ng and 25461.45 ng (4 ml PBS, Day 7, samples and avg); 26001.30 ng (4 ml PBS, Day 7, samples and avg, mean). For the same compound, the “Cumulative Pred Release” value was 55975.76 ng and 47712.14 ng and 52962.20 ng (4 ml PBS, Day 14, samples and avg); 52216.70 ng (4 ml PBS, Day 14, samples and avg, mean). The “Cumulative Pred Release (%)” value runs as follows: (PBS, Day 1, avg) 0.38%; (PBS, Day 3, avg) 0.94%; (PBS, Day 7, avg) 2.72%; (PBS, Day 14, avg) 5.45%.
